Data published in patent US11655244B2, “Carbazole compounds and methods of use thereof” (GSNO Therapeutics, Inc, priority 2017, dated 2023).
Like-named read-outs stand apart in the source and are kept apart here.

Legend:
[1] = biological target: T1, GSNOR enzyme (Homo sapiens, UniProt P11766); experiment: GSNOR inhibition assay (rate of NADH consumption, 340 nm absorbance); assay type: biochemical
Procedure: The following compounds were also prepared based on the methods described herein, using the appropriate starting materials. Table 2a and Table 2b also provides the % GSNOR inhibition at 20 μM of compounds described herein. […] The buffer was 100 mM phosphate buffer (pH 7.4.) The rate of NADH consumption for each well was determined by ultraviolet spectroscopy. Plates were read on a Molecular Devices Spectra Max UV/Visible Spectrophotometer/plate reader and the change in 340 nm absorbance at 25° C. was recorded for each well at 10 sec intervals over the duration of the recording period (2˜5 minutes). The rate was measured from the linear portion of the curve. Final test compound concentration was 20 μM. The mean % inhibition from 3 test compound wells and 5 control wells was measured as the percentage of the mean no compound+enzyme−the mean no enzyme, no compound control.

[2] = biological target: T1, GSNOR enzyme; experiment: as above; assay type: biochemical; details: Table 2b; read-out: IC50 Micromolar
[3] = tested on: non-alcoholic steatohepatitis (NASH) in male C57BL/6 mice; experiment: Non-alcoholic steatohepatitis (NASH) model, Streptozotocin plus 60% kcal fat diet; assay type: in vivo; details: for liver to body weight ratio: disease control 0.066; for decrease of percentage collagen proportion area (CPA), Masson's trichrome staining, liver: vs disease control
Procedure: Timed pregnant mice (n=44) were selected for the study. The delivered pups were subcutaneously injected on post-natal day 2 with 200 μg of Streptozotocin and were allowed to remain with the mother until they reached the weanling age. After weanling, the male pups were selected and fed with 60% kcal fat diet (Research Diet-D12492) for next 6 weeks. All the animals were observed once daily for clinical signs and twice daily for morbidity and mortality.
Mice were dosed with vehicle, Compound 17 (at 3 mg/kg or 10 mg/kg) and 10 mg/kg of reference compound (either Obeticholic acid (OCA) or Elafibranor (ELA, GFT505)) once daily before the start of dark cycle (6:00 PM) from day 0 to 21. Animal body weight measurements were made daily for the complete duration of the experiment. Animals were dosed for 21 days (from week 9 to 12) with the test and reference compounds. Blood glucose was estimated before the treatment start, day 11 and on the termination day. Histopathology analysis including the H&E staining, Masson's trichrome staining and the Oil-red-O (ORO) staining was performed for the liver tissues.

[4] = Table 2b, test compound 20 uM, read-out: % GSNOR Inhibition at 20 uM
[5] = Table 2a, test compound 20 μM, pH 7.4, 25° C., read-out: % Inhibit. at 20 μM

T1 sequence (P11766 whole entry): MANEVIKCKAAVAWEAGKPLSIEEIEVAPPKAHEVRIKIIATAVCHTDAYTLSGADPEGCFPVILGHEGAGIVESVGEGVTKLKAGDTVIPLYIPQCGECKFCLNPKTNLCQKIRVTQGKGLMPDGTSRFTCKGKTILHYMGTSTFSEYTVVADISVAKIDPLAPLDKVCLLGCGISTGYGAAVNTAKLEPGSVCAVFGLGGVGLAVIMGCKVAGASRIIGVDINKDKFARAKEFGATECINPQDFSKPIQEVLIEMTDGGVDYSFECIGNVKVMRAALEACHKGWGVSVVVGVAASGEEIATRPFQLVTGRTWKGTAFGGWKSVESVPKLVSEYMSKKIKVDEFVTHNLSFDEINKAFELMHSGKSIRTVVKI

`COc1ccc(-n2c3ccc(-n4ccnc4)cc3c3ccc(CCC(=O)O)cc32)c(C)c1` [Compound 25] was tested, and the inhibition at 20 µM [1, 4] was 92%.
Work on `NC(=O)c1ccc(-n2c3cc(CNc4nccs4)ccc3c3ccc(C(=O)O)cc32)c([N+](=O)[O-])c1` [Compound J1, 9-(4-carbamoyl-2-nitrophenyl)-7-((thiazol-2-ylamino)methyl)-9H-carbazole-2-carboxylic acid] yielded an inhibition at 20 µM [1, 5] of 9%.
In the case of `NC(=O)c1ccc(-n2c3cc(Cn4ccnc4)ccc3c3ccc(C(=O)O)cc32)c([N+](=O)[O-])c1` [Compound 16, 9-(4-aminocarbonyl-2-nitrophenyl)-7-[(1H-imidazol-1-yl)methyl]-9H-carbazole-2-carboxylic acid], the inhibition at 20 µM [1, 5] is reported as 89%, the inhibition at 20 µM [1, 4] is reported as 89% and the IC50 [2] is reported as 1 to 5 µM.
For `CSc1ccc(C(=O)/C=C/c2cc(C)c(OC(C)(C)C(=O)O)c(C)c2)cc1` [Elafibranor, reference compound], the NAS ([3]; 10 mg/kg) was 2.67, the “ORO (Oil-Red-O) steatosis score relative to disease control” value ([3]; 10 mg/kg) was −11% and the “change of liver to body weight ratio compared with disease control” value ([3]; 10 mg/kg) was “+40%”. For the same molecule, the “plasma glucose relative to disease control (in words)” value ([3]; 10 mg/kg once daily) was “neither OCA nor ELA reduced glucose”, the “body weight, statistical significance” value ([3]; 10 mg/kg, day 7 and 12 post-treatment) was “statistically significant (*p<0.05) increase in body weight” and the “weight put on relative to naïve controls at day 21” value ([3]; 10 mg/kg) was “+43%”. The “liver to body weight ratio” value ([3]; 10 mg/kg) was 0.092, the “decrease of percentage collagen proportion area (CPA), Masson's trichrome staining, liver” value ([3]; 10 mg/kg) was 54% and the “change in body weight (g), Mean” value ([3]; Day 1, 10 mg/kg once daily) was 0.00 g. The “change in body weight (g), Mean” value ([3]; Day 2, 10 mg/kg once daily) was 0.70 g, the “change in body weight (g), Mean” value ([3]; Day 3, 10 mg/kg once daily) was 1.18 g and the “change in body weight (g), Mean” value ([3]; Day 4, 10 mg/kg once daily) was 0.93 g. The “change in body weight (g), Mean” value ([3]; Day 5, 10 mg/kg once daily) was 1.42 g, the “change in body weight (g), Mean” value ([3]; Day 6, 10 mg/kg once daily) was 1.31 g and the “change in body weight (g), Mean” value ([3]; Day 7, 10 mg/kg once daily) was 1.43 g. For the same molecule, the “change in body weight (g), Mean” value ([3]; Day 8, 10 mg/kg once daily) was 1.49 g, the “change in body weight (g), Mean” value ([3]; Day 9, 10 mg/kg once daily) was 1.71 g and the “change in body weight (g), Mean” value ([3]; Day 10, 10 mg/kg once daily) was 1.69 g. For the same molecule, the “change in body weight (g), Mean” value ([3]; Day 11, 10 mg/kg once daily) was 1.47 g, the “change in body weight (g), Mean” value ([3]; Day 12, 10 mg/kg once daily) was -0.17 g and the “change in body weight (g), Mean” value ([3]; Day 13, 10 mg/kg once daily) was 1.73 g. The “change in body weight (g), Mean” value ([3]; Day 14, 10 mg/kg once daily) was 1.96 g, the “change in body weight (g), Mean” value ([3]; Day 15, 10 mg/kg once daily) was 2.00 g and the “change in body weight (g), Mean” value ([3]; Day 16, 10 mg/kg once daily) was 1.64 g. The “change in body weight (g), Mean” value ([3]; Day 17, 10 mg/kg once daily) was 1.82 g, the “change in body weight (g), Mean” value ([3]; Day 18, 10 mg/kg once daily) was 2.16 g and the “change in body weight (g), Mean” value ([3]; Day 19, 10 mg/kg once daily) was 2.26 g. For the same molecule, the “change in body weight (g), Mean” value ([3]; Day 20, 10 mg/kg once daily) was 1.88 g and the “change in body weight (g), Mean” value ([3]; Day 21, 10 mg/kg once daily) was 2.22 g.
Molecule `O=C(O)CCc1ccc2c3cc(-n4ccnc4)ccc3n(-c3ccc(Cl)cc3)c2c1` [Compound 22] has an inhibition at 20 µM [1, 4] of 81.4%.
Work on `NC(=O)c1ccc(-n2c3cc(CNc4ncco4)ccc3c3ccc(C(=O)O)cc32)c([N+](=O)[O-])c1` [Compound I1, 9-(4-carbamoyl-2-nitrophenyl)-7-((oxazol-2-ylamino)methyl)-9H-carbazole-2-carboxylic acid] yielded an inhibition at 20 µM [1, 5] of 0%.
For `NC(=O)CCn1c2ccc(-n3ccnc3)cc2c2cc(F)c(C(=O)O)cc21` [Compound E1, 9-(3-amino-3-oxopropyl)-3-fluoro-6-(1H-imidazol-1-yl)-9H-carbazole-2-carboxylic acid], the inhibition at 20 µM [1, 5] was 18%.
`N#Cc1ccc(-n2c3cc(CNc4nccs4)ccc3c3ccc(C(=O)O)cc32)c([N+](=O)[O-])c1` [Compound G1, 9-(4-cyano-2-nitrophenyl)-7-((thiazol-2-ylamino)methyl)-9H-carbazole-2-carboxylic acid] showed an inhibition at 20 µM [1, 5] of 15%.
`N#Cc1ccc(-n2c3ccc(-n4ccnc4)cc3c3ccc(CCC(=O)O)cc32)cc1` [Compound 18] showed an inhibition at 20 µM [1, 4] of 72.4% and an IC50 [2] greater than 5 µM.
`CC[C@H]1[C@@H](O)[C@@H]2[C@H](CC[C@]3(C)[C@@H]([C@H](C)CCC(=O)O)CC[C@@H]23)[C@@]2(C)CC[C@@H](O)C[C@@H]12` [Obeticholic acid, reference compound] was tested, and the NAS ([3]; 10 mg/kg) was 3.20, the “ORO (Oil-Red-O) steatosis score relative to disease control” value ([3]; 10 mg/kg) was −1% and the “change of liver to body weight ratio compared with disease control” value ([3]; 10 mg/kg) was −11%. For the same molecule, the “weight put on relative to naïve controls at day 21” value ([3]; 10 mg/kg) was “+28%”, the “liver to body weight ratio” value ([3]; 10 mg/kg) was 0.058 and the “decrease of percentage collagen proportion area (CPA), Masson's trichrome staining, liver” value ([3]; 10 mg/kg) was 50%. The “change in body weight (g), Mean” value ([3]; Day 1, 10 mg/kg once daily) was 0.00 g, the “change in body weight (g), Mean” value ([3]; Day 2, 10 mg/kg once daily) was 0.43 g and the “change in body weight (g), Mean” value ([3]; Day 3, 10 mg/kg once daily) was 0.57 g. The “change in body weight (g), Mean” value ([3]; Day 4, 10 mg/kg once daily) was 0.43 g, the “change in body weight (g), Mean” value ([3]; Day 5, 10 mg/kg once daily) was 0.45 g and the “change in body weight (g), Mean” value ([3]; Day 6, 10 mg/kg once daily) was 0.78 g. The “change in body weight (g), Mean” value ([3]; Day 7, 10 mg/kg once daily) was 0.58 g, the “change in body weight (g), Mean” value ([3]; Day 8, 10 mg/kg once daily) was 0.89 g and the “change in body weight (g), Mean” value ([3]; Day 9, 10 mg/kg once daily) was 0.85 g. For the same molecule, the “change in body weight (g), Mean” value ([3]; Day 10, 10 mg/kg once daily) was 1.06 g, the “change in body weight (g), Mean” value ([3]; Day 11, 10 mg/kg once daily) was 0.78 g and the “change in body weight (g), Mean” value ([3]; Day 12, 10 mg/kg once daily) was 0.06 g. For the same molecule, the “change in body weight (g), Mean” value ([3]; Day 13, 10 mg/kg once daily) was 0.82 g, the “change in body weight (g), Mean” value ([3]; Day 14, 10 mg/kg once daily) was 1.05 g and the “change in body weight (g), Mean” value ([3]; Day 15, 10 mg/kg once daily) was 0.54 g. For the same molecule, the “change in body weight (g), Mean” value ([3]; Day 16, 10 mg/kg once daily) was 0.82 g, the “change in body weight (g), Mean” value ([3]; Day 17, 10 mg/kg once daily) was 1.43 g and the “change in body weight (g), Mean” value ([3]; Day 18, 10 mg/kg once daily) was 1.52 g. For the same molecule, the “change in body weight (g), Mean” value ([3]; Day 19, 10 mg/kg once daily) was 1.81 g, the “change in body weight (g), Mean” value ([3]; Day 20, 10 mg/kg once daily) was 1.62 g and the “change in body weight (g), Mean” value ([3]; Day 21, 10 mg/kg once daily) was 1.98 g.
